Common to all, as to experiment: Protein kinase assay
One assay addresses CDK1/cyclin B. In kind it is biochemical, starfish. Particulars: 15 μmol/L ATP.
The target in another assay is DYRK1B (Homo sapiens, UniProt Q9Y463). In kind it is biochemical. The following applies: 15 μmol/L ATP.
The target of another assay is GlCLK (Giardia intestinalis, UniProt A8BBY0). In kind it is biochemical.
A further assay has as its target LmDYRK2 (Leishmania major, UniProt Q4Q405). In kind it is biochemical.
Another assay addresses LdDYRK1B (Leishmania donovani, UniProt E9BC59). In kind it is biochemical. The following applies: 15 μmol/L ATP.
A further assay addresses T1, PfGSK-3 (Plasmodium falciparum, UniProt O77344).
T1 sequence (O77344 1-440): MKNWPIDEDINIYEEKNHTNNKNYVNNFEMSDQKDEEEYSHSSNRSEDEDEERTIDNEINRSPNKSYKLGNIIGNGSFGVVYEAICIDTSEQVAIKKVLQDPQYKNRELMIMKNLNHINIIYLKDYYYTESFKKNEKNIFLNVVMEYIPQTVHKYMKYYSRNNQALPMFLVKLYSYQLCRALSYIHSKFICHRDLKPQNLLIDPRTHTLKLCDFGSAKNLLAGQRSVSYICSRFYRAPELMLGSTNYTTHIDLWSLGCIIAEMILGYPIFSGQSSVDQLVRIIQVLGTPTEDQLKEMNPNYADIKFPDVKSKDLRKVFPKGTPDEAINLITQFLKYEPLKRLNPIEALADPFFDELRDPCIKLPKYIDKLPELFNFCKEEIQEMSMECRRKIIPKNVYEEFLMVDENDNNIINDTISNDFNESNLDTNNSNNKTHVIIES
In kind it is biochemical.

The next assay concerns the target LdDYRK4 (Leishmania donovani, UniProt A0A3Q8IC55). In kind it is biochemical.
In another assay the target is CpLAMMER (Cryptosporidium parvum, UniProt A3FQG5). In kind it is biochemical.
The target in another assay is LmCLK (Leishmania major, UniProt Q4QHY4). In kind it is biochemical.
LmCLK, sequence (Q4QHY4 entry or part of it): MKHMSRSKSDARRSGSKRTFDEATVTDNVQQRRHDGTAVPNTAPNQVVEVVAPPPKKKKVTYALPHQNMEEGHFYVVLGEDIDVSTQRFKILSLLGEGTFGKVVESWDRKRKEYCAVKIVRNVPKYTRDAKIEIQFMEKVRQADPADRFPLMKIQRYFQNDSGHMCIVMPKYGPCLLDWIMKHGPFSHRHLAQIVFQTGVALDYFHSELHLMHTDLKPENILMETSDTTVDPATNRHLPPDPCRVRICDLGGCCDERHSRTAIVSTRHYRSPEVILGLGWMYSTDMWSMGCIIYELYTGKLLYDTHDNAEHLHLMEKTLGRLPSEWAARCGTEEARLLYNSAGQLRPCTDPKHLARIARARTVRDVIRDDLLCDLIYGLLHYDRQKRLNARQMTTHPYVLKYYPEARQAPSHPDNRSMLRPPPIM
Another assay concerns the target LdDYRK3 (Leishmania donovani, UniProt E9BS59). In kind it is biochemical.
For a further assay, the target named is TcCLK1 (Trypanosoma cruzi, UniProt Q4E3Z1). In kind it is biochemical.
A further assay addresses TbCLK1 (Trypanosoma brucei brucei, UniProt Q382U0). In kind it is biochemical.
A further assay deals with PfCLK1 (Plasmodium falciparum, UniProt Q8IL19). In kind it is biochemical.
In another assay the target is CLK2 (Mus musculus, UniProt O35491). The following applies: IC50 CLK2, 15 μmol/L ATP.
CLK2, sequence (O35491 whole entry): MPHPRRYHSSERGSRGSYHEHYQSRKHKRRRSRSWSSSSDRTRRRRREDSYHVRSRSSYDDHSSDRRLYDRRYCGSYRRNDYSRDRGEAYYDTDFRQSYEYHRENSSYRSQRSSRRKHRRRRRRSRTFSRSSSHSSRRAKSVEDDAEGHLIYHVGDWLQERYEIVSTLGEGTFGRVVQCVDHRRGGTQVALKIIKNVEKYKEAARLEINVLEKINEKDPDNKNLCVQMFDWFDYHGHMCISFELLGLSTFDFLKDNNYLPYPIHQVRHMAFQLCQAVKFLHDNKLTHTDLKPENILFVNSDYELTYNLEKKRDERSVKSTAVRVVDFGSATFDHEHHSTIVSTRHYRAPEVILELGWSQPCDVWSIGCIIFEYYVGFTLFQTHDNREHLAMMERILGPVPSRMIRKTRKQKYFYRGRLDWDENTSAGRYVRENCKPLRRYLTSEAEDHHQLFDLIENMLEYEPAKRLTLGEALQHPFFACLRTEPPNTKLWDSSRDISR
For another assay, the target named is CLK3 (Mus musculus, UniProt O35492). The following applies: IC50 CLK3, 15 μmol/L ATP.
Another assay addresses CDK9/cyclin T (Homo sapiens, UniProt P50750). The following applies: IC50 CDK9/cyclin T, 15 μmol/L ATP.
For a further assay, the target named is TgCLK (Toxoplasma gondii, UniProt V4ZJD6). In kind it is biochemical.
For a further assay, the target named is LmCK1 (Leishmania major, UniProt Q9NHE1). In kind it is biochemical. As to the method: (§1) CK1δ/ε (porcine brain, native) and LmCK1 (leishmania major, recombinant, expressed in E. coli as HIS fusion proteins) was assayed as described for CDK1 but in buffer C and using 25 μM CKS peptide ([…]pSAYSITA), a CK1-specific substrate.
LmCK1, sequence (Q9NHE1 entry or part of it): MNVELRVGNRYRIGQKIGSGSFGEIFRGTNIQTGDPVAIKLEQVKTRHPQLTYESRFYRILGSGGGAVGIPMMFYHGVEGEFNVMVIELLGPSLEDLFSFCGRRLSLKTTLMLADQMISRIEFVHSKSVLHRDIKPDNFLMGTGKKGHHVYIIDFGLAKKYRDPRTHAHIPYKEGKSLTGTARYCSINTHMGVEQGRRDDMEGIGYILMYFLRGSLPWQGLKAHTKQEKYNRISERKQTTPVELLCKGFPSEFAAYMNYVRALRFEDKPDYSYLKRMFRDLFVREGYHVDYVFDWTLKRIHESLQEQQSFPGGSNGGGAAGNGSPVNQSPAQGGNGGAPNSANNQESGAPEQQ
The next assay has as its target T2, CDK2/cyclin A (Homo sapiens, UniProt P24941).
T2 construct: made in house
In kind it is biochemical.

In a further assay the target is DYRK1A (Homo sapiens, UniProt Q13627). In kind it is biochemical. The following applies: 15 μmol/L ATP.
Another assay has as its target CLK1 (Mus musculus, UniProt P22518). Particulars: IC50 CLK1, 15 μmol/L ATP.
The target of the next assay is CK1δ/ε. In kind it is biochemical, porcine. Particulars: 15 μmol/L ATP. As to the method:
as §1

In the next assay the target is CLK4 (Mus musculus, UniProt O35493). Particulars: IC50 CLK4, 15 μmol/L ATP.
CLK4, sequence (O35493 whole entry): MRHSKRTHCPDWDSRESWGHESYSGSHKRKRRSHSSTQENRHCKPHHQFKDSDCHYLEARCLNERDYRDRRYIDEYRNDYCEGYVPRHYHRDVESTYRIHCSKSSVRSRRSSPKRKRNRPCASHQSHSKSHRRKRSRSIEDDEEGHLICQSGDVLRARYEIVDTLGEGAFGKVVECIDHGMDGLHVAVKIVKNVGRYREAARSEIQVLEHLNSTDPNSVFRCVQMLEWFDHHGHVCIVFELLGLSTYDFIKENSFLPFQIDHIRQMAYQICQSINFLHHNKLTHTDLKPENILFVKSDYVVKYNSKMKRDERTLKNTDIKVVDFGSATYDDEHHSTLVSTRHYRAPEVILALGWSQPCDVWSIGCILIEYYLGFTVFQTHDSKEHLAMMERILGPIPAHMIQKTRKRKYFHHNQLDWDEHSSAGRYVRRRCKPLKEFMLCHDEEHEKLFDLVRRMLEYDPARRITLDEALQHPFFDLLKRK
Setting [1] is: 15 μmol/L ATP, read-out: IC50 GlCLK.
[2] abbreviates: 15 μmol/L ATP, read-out: IC50 LmDYRK2.
Where [3] appears, read: 15 μmol/L ATP, read-out: IC50 PfGSK-3.
Where [4] appears, read: 15 μmol/L ATP, read-out: IC50 LdDYRK4.
The mark [5] stands for this setting: 15 μmol/L ATP, read-out: IC50 CpLAMMER.
Where [6] appears, read: 15 μmol/L ATP, read-out: IC50 LmCLK.
Setting [7] is: 15 μmol/L ATP, read-out: IC50 LdDYRK3.
Where [8] appears, read: 15 μmol/L ATP, read-out: IC50 TcCLK1.
Setting [9] is: 15 μmol/L ATP, read-out: IC50 TbCLK1.
[10] abbreviates: 15 μmol/L ATP, read-out: IC50 PfCLK1.
Where [11] appears, read: 15 μmol/L ATP; read-out: IC50 TgCLK.
[12] abbreviates: 15 μmol/L ATP, read-out: IC50 LmCK1.
Setting [13] is: 15 μmol/L ATP, read-out: IC50 CDK2/cyclin A.

Like-named read-outs stand apart in the source and are kept apart here.

DYRK1B, sequence (Q9Y463 whole entry): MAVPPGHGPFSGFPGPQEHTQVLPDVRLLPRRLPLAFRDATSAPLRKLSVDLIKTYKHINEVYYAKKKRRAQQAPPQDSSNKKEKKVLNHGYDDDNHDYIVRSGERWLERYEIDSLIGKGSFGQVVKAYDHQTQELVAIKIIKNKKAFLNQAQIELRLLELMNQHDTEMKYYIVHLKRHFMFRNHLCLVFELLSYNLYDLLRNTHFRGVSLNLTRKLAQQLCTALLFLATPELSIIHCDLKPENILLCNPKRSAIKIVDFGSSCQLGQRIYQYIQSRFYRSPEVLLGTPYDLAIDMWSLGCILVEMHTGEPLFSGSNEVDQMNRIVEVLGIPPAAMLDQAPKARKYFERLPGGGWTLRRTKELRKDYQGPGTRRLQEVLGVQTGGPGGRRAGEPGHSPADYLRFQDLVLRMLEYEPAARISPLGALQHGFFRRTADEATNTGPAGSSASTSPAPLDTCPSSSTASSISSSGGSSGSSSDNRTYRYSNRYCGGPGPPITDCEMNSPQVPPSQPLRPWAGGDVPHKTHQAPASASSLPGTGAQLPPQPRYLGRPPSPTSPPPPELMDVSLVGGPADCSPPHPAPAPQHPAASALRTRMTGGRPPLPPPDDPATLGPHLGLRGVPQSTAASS
GlCLK, sequence (A8BBY0 entry or part of it): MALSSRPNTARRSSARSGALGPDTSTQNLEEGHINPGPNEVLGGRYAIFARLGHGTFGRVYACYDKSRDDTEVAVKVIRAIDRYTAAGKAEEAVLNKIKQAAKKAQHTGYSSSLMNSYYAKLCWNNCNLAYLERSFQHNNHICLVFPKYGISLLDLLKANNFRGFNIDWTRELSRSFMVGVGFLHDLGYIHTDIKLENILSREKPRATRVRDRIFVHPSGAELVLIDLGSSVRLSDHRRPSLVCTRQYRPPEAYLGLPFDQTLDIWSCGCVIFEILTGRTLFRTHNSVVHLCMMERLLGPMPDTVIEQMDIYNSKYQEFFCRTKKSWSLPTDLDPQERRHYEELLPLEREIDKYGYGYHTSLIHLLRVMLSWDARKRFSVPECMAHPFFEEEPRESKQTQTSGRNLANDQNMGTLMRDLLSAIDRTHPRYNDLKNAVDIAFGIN
CLK1, sequence (P22518 whole entry): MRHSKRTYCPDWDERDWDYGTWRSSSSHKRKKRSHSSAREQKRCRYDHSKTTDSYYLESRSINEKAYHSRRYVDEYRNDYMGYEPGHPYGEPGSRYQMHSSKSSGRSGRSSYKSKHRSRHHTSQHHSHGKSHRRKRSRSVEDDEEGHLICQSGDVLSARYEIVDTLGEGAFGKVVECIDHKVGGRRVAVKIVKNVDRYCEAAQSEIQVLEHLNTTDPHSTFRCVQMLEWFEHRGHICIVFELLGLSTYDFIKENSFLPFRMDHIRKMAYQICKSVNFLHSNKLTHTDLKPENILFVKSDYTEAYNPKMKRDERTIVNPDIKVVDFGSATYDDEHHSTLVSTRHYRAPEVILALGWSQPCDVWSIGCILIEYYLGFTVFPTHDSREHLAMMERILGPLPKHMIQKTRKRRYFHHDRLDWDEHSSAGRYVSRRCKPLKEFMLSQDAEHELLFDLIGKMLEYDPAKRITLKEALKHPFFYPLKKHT
LdDYRK1B, sequence (E9BC59 1-745): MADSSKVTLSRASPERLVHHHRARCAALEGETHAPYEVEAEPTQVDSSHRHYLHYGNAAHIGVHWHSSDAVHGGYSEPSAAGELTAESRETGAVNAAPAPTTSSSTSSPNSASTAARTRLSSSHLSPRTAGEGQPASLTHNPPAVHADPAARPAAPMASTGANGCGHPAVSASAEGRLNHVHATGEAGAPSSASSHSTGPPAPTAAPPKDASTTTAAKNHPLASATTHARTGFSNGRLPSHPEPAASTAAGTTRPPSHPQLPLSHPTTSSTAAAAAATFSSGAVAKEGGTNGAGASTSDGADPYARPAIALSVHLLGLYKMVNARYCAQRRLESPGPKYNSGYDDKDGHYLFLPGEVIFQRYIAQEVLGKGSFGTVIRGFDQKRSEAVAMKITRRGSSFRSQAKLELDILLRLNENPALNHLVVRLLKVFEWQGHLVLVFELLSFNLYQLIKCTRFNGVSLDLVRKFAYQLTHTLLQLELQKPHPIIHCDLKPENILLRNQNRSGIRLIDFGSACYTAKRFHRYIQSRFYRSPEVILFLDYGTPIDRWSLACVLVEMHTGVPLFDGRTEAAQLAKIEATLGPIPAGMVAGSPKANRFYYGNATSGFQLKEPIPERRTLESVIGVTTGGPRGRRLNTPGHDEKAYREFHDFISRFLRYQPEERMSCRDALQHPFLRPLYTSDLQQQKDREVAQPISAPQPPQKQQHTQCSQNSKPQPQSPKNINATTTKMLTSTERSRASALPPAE
LdDYRK4, sequence (A0A3Q8IC55 entry or part of it): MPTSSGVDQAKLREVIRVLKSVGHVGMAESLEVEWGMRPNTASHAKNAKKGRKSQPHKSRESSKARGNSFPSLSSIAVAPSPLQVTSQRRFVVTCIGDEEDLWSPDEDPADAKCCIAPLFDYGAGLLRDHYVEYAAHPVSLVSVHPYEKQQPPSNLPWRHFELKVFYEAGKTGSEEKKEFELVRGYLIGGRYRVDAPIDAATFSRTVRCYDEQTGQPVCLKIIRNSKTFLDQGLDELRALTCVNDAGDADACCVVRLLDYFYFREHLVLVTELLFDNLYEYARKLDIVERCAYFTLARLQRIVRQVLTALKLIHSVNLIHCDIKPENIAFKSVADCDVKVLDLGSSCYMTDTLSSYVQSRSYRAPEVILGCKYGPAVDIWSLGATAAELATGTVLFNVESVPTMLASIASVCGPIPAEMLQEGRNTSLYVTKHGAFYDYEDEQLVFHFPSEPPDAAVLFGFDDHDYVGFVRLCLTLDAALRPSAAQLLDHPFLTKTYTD

Take `NC1=NC(=O)/C(=C2\CCNC(=O)c3[nH]cc(Br)c32)N1` [Spongiacidin B]: the IC50 at CDK1/cyclin B was determined as 0.031 µM; against DYRK1B it was 0.0058 µM; at GlCLK (setting [1]) it was 0.12 µM; at LmDYRK2 (setting [2]) it was 9 µM; against LdDYRK1B, 0.5 µM; at PfGSK-3 (setting [3]), 0.038 µM. For the same molecule, the IC50 was greater than 10 µM at LdDYRK4 (setting [4]); 0.13 µM at CpLAMMER (setting [5]); 5.2 µM on LmCLK (setting [6]); 0.3 µM on LdDYRK3 (setting [7]); 1.1 µM at TcCLK1 (setting [8]); 0.71 µM at TbCLK1 (setting [9]). The IC50 worked out at 0.085 µM on PfCLK1 (setting [10]); 0.0073 µM at CLK2; 0.049 µM against CLK3; 0.2 µM at CDK9/cyclin T; 0.48 µM on TgCLK (setting [11]); 0.025 µM on LmCK1 (setting [12]). The IC50 on CDK2/cyclin A (setting [13]) was found to be 0.068 µM; against DYRK1A it was 0.78 µM; at CLK1 it was 0.022 µM; against CK1δ/ε it was 0.031 µM; on CLK4, 0.0036 µM.
As for `NC1=N/C(=C\CCNC(=O)c2cc(Br)c(Br)[nH]2)C(=O)N1` [Dispacamide], the IC50 against CDK1/cyclin B, against DYRK1B, on GlCLK (setting [1]), on LmDYRK2 (setting [2]), at LdDYRK1B and at PfGSK-3 (setting [3]) was greater than 10 µM in each case. The IC50 on LdDYRK4 (setting [4]), at CpLAMMER (setting [5]), on LmCLK (setting [6]), on LdDYRK3 (setting [7]), at TcCLK1 (setting [8]) and at TbCLK1 (setting [9]) was greater than 10 µM throughout. Moreover, the IC50 at PfCLK1 (setting [10]), against CLK2, at CLK3, against CDK9/cyclin T, on TgCLK (setting [11]) and at LmCK1 (setting [12]) was greater than 10 µM in each case. Also, the IC50 at CDK2/cyclin A (setting [13]), on DYRK1A, against CLK1, against CK1δ/ε and at CLK4 was greater than 10 µM in each case.
As to `CN1C(=O)/C(=C/c2ccc3c(c2)OCO3)N=C1N` [Leucettamine B], the IC50 was greater than 10 µM at CDK1/cyclin B; 3.1 µM against GlCLK; 4.2 µM against LmDYRK2; 6.9 µM at LdDYRK1B; greater than 10 µM on PfGSK-3; greater than 10 µM on LdDYRK4. The IC50 is 1.8 µM at CpLAMMER; greater than 10 µM against LmCLK; greater than 10 µM at LdDYRK3; greater than 10 µM on TcCLK1; greater than 10 µM at TbCLK1; 0.79 µM on PfCLK1. Moreover, the IC50 is 0.91 µM against CLK2; 9.7 µM against CLK3; greater than 10 µM against CDK9/cyclin T; 4.1 µM at TgCLK (read-out: IC50 TgCLK; 15 μmol/L ATP); greater than 10 µM against LmCK1; greater than 10 µM on CDK2/cyclin A. The IC50 at CLK1 was 0.1 µM; at CK1δ/ε it was greater than 10 µM; against CLK4, 0.12 µM.
For `COc1cc(/C=C2\N=C(N)NC2=O)ccc1O` [Polyandrocarpamine A], the IC50 was 0.43 µM at DYRK1B; 0.95 µM on GlCLK (setting [1]); 5.9 µM at LmDYRK2 (setting [2]); 1.1 µM against LdDYRK1B; greater than 10 µM on PfGSK-3 (setting [3]); greater than 10 µM on LdDYRK4 (setting [4]). Besides, the IC50 on CpLAMMER (setting [5]) is 0.17 µM; at LmCLK (setting [6]), greater than 10 µM; at LdDYRK3 (setting [7]) it was greater than 10 µM; at TcCLK1 (setting [8]) it was greater than 10 µM; at TbCLK1 (setting [9]), greater than 10 µM; at PfCLK1 (setting [10]), 0.65 µM. The IC50 against CLK2 was 1.2 µM; against CLK3, 2.6 µM; at CDK9/cyclin T, 0.93 µM; at TgCLK (setting [11]), greater than 10 µM; on LmCK1 (setting [12]) it was greater than 10 µM; at CDK2/cyclin A (setting [13]), greater than 10 µM. For the same molecule, the IC50 turned out to be 0.27 µM at DYRK1A, 1 µM at CLK1, 3.3 µM at CK1δ/ε and 0.32 µM at CLK4.
As for `NC1=N/C(=C\c2ccc(O)c(O)c2)C(=O)N1` [Polyandrocarpamine B], the IC50 was greater than 10 µM on CDK1/cyclin B; 1.2 µM on DYRK1B; 2.2 µM at GlCLK (setting [1]); greater than 10 µM at LmDYRK2 (setting [2]); greater than 10 µM at LdDYRK1B; greater than 10 µM on PfGSK-3 (setting [3]). In addition, the IC50 was greater than 10 µM on LdDYRK4 (setting [4]); 0.2 µM on CpLAMMER (setting [5]); greater than 10 µM at LmCLK (setting [6]); greater than 10 µM on LdDYRK3 (setting [7]); greater than 10 µM on TcCLK1 (setting [8]); greater than 10 µM at TbCLK1 (setting [9]). In addition, the IC50 on PfCLK1 (setting [10]) is 3.1 µM; against CLK2, 4.9 µM; at CLK3, 8.6 µM; at CDK9/cyclin T, 5.2 µM; on TgCLK (setting [11]), greater than 10 µM; on LmCK1 (setting [12]), greater than 10 µM. Moreover, the IC50 was greater than 10 µM on CDK2/cyclin A (setting [13]), 0.47 µM against DYRK1A, greater than 10 µM at CK1δ/ε and 0.82 µM at CLK4.
With `CN1C(=N)N(C)/C(=C\c2c[nH]c3ccccc23)C1=O` [Aplysinopsine], the IC50 against CDK1/cyclin B, against DYRK1B, on GlCLK (setting [1]), at LmDYRK2 (setting [2]), on LdDYRK1B and on PfGSK-3 (setting [3]) was greater than 10 µM in each case. Moreover, the IC50 on LdDYRK4 (setting [4]), at CpLAMMER (setting [5]), on LmCLK (setting [6]), at LdDYRK3 (setting [7]), on TcCLK1 (setting [8]) and at TbCLK1 (setting [9]) was greater than 10 µM throughout. Moreover, the IC50 on PfCLK1 (setting [10]), against CLK2, at CLK3, on CDK9/cyclin T, at TgCLK (setting [11]) and at LmCK1 (setting [12]) was greater than 10 µM each time. Further, the IC50 at CDK2/cyclin A (setting [13]), at DYRK1A, against CLK1, at CK1δ/ε and against CLK4 was greater than 10 µM throughout.
Regarding `CN1C(=N)N=C(Nc2nc(Cc3ccc4c(c3)OCO4)cn2C)C1=O` [Clathridimine], the IC50 was greater than 10 µM on CDK1/cyclin B; 5.6 µM at DYRK1B; greater than 10 µM on GlCLK (setting [1]); greater than 10 µM at LmDYRK2 (setting [2]); greater than 10 µM on LdDYRK1B; greater than 10 µM at PfGSK-3 (setting [3]). Further, the IC50 on LdDYRK4 (setting [4]) was greater than 10 µM; at CpLAMMER (setting [5]), greater than 10 µM; on LmCLK (setting [6]) it was greater than 10 µM; at LdDYRK3 (setting [7]), 7.9 µM; at TcCLK1 (setting [8]) it was greater than 10 µM; at TbCLK1 (setting [9]), greater than 10 µM. Besides, the IC50 was greater than 10 µM on PfCLK1 (setting [10]); 6.1 µM against CLK2; greater than 10 µM on CLK3; greater than 10 µM against CDK9/cyclin T; greater than 10 µM at TgCLK (setting [11]); greater than 10 µM on LmCK1 (setting [12]). The IC50 on CDK2/cyclin A (setting [13]) is greater than 10 µM; on DYRK1A, 5.2 µM; at CLK1, 7.2 µM; against CK1δ/ε it was greater than 10 µM; at CLK4 it was 3.5 µM.

The record behind these values is article PMC5666424, “Marine-Derived 2-Aminoimidazolone Alkaloids. Leucettamine B-Related Polyandrocarpamines Inhibit Mammalian and Protozoan DYRK & CLK Kinases” (Marine Drugs, 2017).
